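Protocol summary: plate cells (96-well), add compound at 5 concentrations, incubate 48 h, interpolate endpoints linearly. GI50: concentration for 50% inhibition of growth. TGI: concentration producing complete growth inhibition.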

We go through two molecules from PubChem BioAssay (NCI).

Among the test systems are RXF 393 renal; COLO 205 colon; MALME-3M melanoma; CAKI-1 renal; U251 CNS; NCI-H522 lung; SK-MEL-2 melanoma; RPMI-8226 leukemia; SK-MEL-5 melanoma; A549 NSCLC.
Assay in all cases: inhibition of tumour cell growth, NCI panel, 48 h

For `CCC[CH2][Sn]1([CH2]CCC)[O]CC(Cc2ccccc2)[O]1` (stereo not given), the GI50 with RXF 393 renal was 1470 nM; in the test with COLO 205 colon, 2550 nM; in the test on MALME-3M melanoma it was 941 nM; in the test with CAKI-1 renal, 1510 nM; with U251 CNS, 1850 nM; in the test on NCI-H522 lung it was 259 nM. Moreover, the GI50 was 1540 nM in the test on SK-MEL-2 melanoma, 312 nM in the test with RPMI-8226 leukemia, 3.09 µM in the test on SK-MEL-5 melanoma and 15.3 µM in the test with A549 NSCLC. Moreover, the TGI worked out at 2840 nM with RXF 393 renal; 5.7 µM in the test with COLO 205 colon; 3.51 µM with MALME-3M melanoma; 4.45 µM in the test with CAKI-1 renal; 3.91 µM with U251 CNS; 930 nM in the test on NCI-H522 lung. The TGI with SK-MEL-2 melanoma turned out to be 3.45 µM; with RPMI-8226 leukemia, 3.62 µM; in the test on SK-MEL-5 melanoma, 14.2 µM; with A549 NSCLC, 28.9 µM.
For `CC(C(=O)c1ccccc1)C(c1ccccc1)N1CCOCC1` (stereo not given), the TGI in the test on RXF 393 renal was above 100000 nM; in the test on COLO 205 colon, above 100 µM; in the test with MALME-3M melanoma, above 100 µM; in the test on CAKI-1 renal, above 100 µM; in the test with U251 CNS, above 100 µM; in the test on NCI-H522 lung, above 100000 nM. Also, the TGI with SK-MEL-2 melanoma, in the test with RPMI-8226 leukemia, with SK-MEL-5 melanoma and with A549 NSCLC was above 100 µM throughout.
